Assay results as given in patent US8134015B2, “Compound inhibiting in vivo phosphorous transport and medicine containing the same” (Kyowa Hakko Kirin Co., Ltd., priority 2003, dated 2012).
Structures can show the parent of a compound that is named as a salt.

These compounds were tested against T1, rat NaPi-2b (Rattus norvegicus, UniProt Q9JJ09) (assay: Sodium-dependent phosphate uptake of Xenopus oocytes which expressed NaPi-2b (32P)). Details: Xenopus oocytes expressing rat NaPi-2b, 32P radioactive phosphorus; read-out: IC50 (phosphate uptake inhibitory activity).
T1 construct: expressed in transfected cells; host or cells: Xenopus oocytes injected with cRNA
T1 sequence (Q9JJ09 1-695): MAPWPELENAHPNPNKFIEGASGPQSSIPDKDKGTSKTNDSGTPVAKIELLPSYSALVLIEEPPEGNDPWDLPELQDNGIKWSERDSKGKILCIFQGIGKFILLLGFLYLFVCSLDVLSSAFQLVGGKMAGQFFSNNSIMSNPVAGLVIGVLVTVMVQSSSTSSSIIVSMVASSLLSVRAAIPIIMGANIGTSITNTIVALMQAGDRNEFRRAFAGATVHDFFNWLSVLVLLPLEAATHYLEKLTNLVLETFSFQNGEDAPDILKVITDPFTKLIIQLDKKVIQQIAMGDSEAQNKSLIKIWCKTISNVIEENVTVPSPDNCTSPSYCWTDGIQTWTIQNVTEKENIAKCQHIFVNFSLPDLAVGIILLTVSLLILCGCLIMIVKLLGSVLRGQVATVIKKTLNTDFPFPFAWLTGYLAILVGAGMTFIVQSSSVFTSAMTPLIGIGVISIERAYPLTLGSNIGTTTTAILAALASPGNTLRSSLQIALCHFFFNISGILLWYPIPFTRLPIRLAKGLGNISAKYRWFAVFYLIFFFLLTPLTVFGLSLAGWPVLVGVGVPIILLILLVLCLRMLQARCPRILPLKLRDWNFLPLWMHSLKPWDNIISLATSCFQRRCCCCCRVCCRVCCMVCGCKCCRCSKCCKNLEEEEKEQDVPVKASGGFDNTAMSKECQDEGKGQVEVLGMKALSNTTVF
Assay type: cell-based
Outline: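 Rat small-intestine NaPi-2b cRNA injected into Xenopus oocytes, expressed for 2 days. Sodium-dependent phosphate uptake measured with 32P; % inhibition at 300 and 100 μM taken from the same inhibition curve.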

Compared with `CCc1ccc(C(=O)Nc2ccc(Br)cc2C(=O)N/N=C/c2ccc(C)cc2)cc1` [Compound 181, N-[4-Bromo-2-(4-methyl-benzylidene-hydrazinocarbonyl)-phenyl]-4-ethyl-benzamide], `CCc1ccc(C(=O)Nc2ccc(Br)cc2C(=O)N/N=C/c2ccc(C)c(C)c2)cc1` [Compound 182, N-[4-Bromo-2-(3,4-dimethyl-benzylidene-hydrazinocarbonyl)-phenyl]-4-ethyl-benzamide] is 3.2-fold higher in IC50: 3.16 µM for the first, 10.2 µM for the second.

`CCc1ccc(C(=O)Nc2ccc(Br)cc2C(=O)N/N=C/c2ccc(Cl)c(C(F)(F)F)c2)cc1` [Compound 183, N-[4-Bromo-2-(4-chloro-3-trifluoromethyl-benzylidene-hydrazinocarbonyl)-phenyl]-4-ethyl-benzamide] and `O=C(Nc1ccc(Br)cc1C(=O)N/N=C/c1ccc(Cl)c(C(F)(F)F)c1)c1cccc(CSc2ccncc2)c1` [Compound 200, N-[4-Bromo-2-(4-chloro-3-trifluoromethyl-benzylidene-hydrazinocarbonyl)-phenyl]-3-(pyridin-4-ylsulfanylmethyl)-benzamide] cannot be ordered by IC50: under 3 µM for the first, 0.39 µM for the second.

Compared with `O=C(Nc1ccc(Cl)cc1C(=O)N/N=C/c1cccc(F)c1)c1cccnc1` [Compound 184, N-[4-Chloro-2-(3-fluoro-benzylidene-hydrazinocarbonyl)-phenyl]-nicotinamide], `Cc1cccc(/C=N/NC(=O)c2cc(Cl)ccc2NC(=O)c2cccnc2)c1` [Compound 186, N-[4-Chloro-2-(3-methyl-benzylidene-hydrazinocarbonyl)-phenyl]-nicotinamide] is 2.5-fold higher in IC50: 4.01 µM for the first, 10.1 µM for the second.

First: O=C(Nc1ccc(Cl)cc1C(=O)N/N=C/c1ccc(F)cc1)c1cccnc1 [Compound 185, N-[4-Chloro-2-(4-fluoro-benzylidene-hydrazinocarbonyl)-phenyl]-nicotinamide]
Second: Cc1ccc(/C=N/NC(=O)c2cc(Cl)ccc2NC(=O)c2cccnc2)cc1 [Compound 187, N-[4-Chloro-2-(4-methyl-benzylidene-hydrazinocarbonyl)-phenyl]-nicotinamide]
The IC50 of the first is 3.9-fold lower: 2.02 µM for the first, 7.87 µM for the second. The first is the more potent here.

Compared with `Cc1ccc(/C=N/NC(=O)c2cc(Cl)ccc2NC(=O)c2cccnc2)cc1C` [Compound 188, N-[4-Chloro-2-(3,4-dimethyl-benzylidene-hydrazinocarbonyl)-phenyl]-nicotinamide], `Cc1ccc(/C=N/NC(=O)c2cc(Cl)ccc2NC(=O)c2ccncc2)cc1C` [Compound 193, N-[4-Chloro-2-(3,4-dimethyl-benzylidene-hydrazinocarbonyl)-phenyl]-isonicotinamide] is 4.6-fold lower in IC50: 19.4 µM for the first, 4.21 µM for the second. The second is the more potent here.

First: O=C(Nc1ccc(Cl)cc1C(=O)N/N=C/c1ccc(Cl)c(C(F)(F)F)c1)c1cccnc1 [Compound 189, N-[4-Chloro-2-(4-chloro-3-trifluoromethyl-benzylidene-hydrazinocarbonyl)-phenyl]-nicotinamide]
Second: O=C(Nc1ccc(Cl)cc1C(=O)N/N=C/c1ccc(Cl)c(C(F)(F)F)c1)c1ccncc1 [Compound 194, N-[4-Chloro-2-(4-chloro-3-trifluoromethyl-benzylidene-hydrazinocarbonyl)-phenyl]-isonicotinamide]
The IC50 of the first is 5-fold lower: 1.47 µM for the first, 7.36 µM for the second. The first is the more potent here.

`O=C(Nc1ccc(Cl)cc1C(=O)N/N=C/c1ccc(F)cc1)c1ccncc1` [Compound 190, N-[4-Chloro-2-(4-fluoro-benzylidene-hydrazinocarbonyl)-phenyl]-isonicotinamide] and `Cc1ccc(/C=N/NC(=O)c2cc(Cl)ccc2NC(=O)c2ccncc2)cc1` [Compound 192, N-[4-Chloro-2-(4-methyl-benzylidene-hydrazinocarbonyl)-phenyl]-isonicotinamide] are within 1.5-fold of each other in IC50: 20.3 µM for the first, 23.1 µM for the second.

First: Cc1cccc(/C=N/NC(=O)c2cc(Cl)ccc2NC(=O)c2ccncc2)c1 [Compound 191, N-[4-Chloro-2-(3-methyl-benzylidene-hydrazinocarbonyl)-phenyl]-isonicotinamide]
Second: Cc1ccc(/C=N/NC(=O)c2ccccc2NC(=O)c2ccncc2)cc1 [Compound 203, N-[2-(4-Methyl-benzylidene-hydrazinocarbonyl)-phenyl]-isonicotinamide hydrochloride]
The IC50 of the first is higher: 12.1 µM for the first, under 3 µM for the second. The second is the more potent here.

First: O=C(Nc1ccc(Br)cc1C(=O)N/N=C/c1cccc(F)c1)c1cccc(CSc2ccncc2)c1 [Compound 195, N-[4-Bromo-2-(3-fluoro-benzylidene-hydrazinocarbonyl)-phenyl]-3-(pyridin-4-ylsulfanylmethyl)-benzamide]
Second: Cc1cccc(/C=N/NC(=O)c2cc(Br)ccc2NC(=O)c2cccc(CSc3ccncc3)c2)c1 [Compound 197, N-[4-Bromo-2-(3-methyl-benzylidene-hydrazinocarbonyl)-phenyl]-3-(pyridin-4-ylsulfanylmethyl)-benzamide]
The IC50 of the first is 5-fold lower: 0.98 µM for the first, 4.87 µM for the second.

Compared with `O=C(Nc1ccc(Br)cc1C(=O)N/N=C/c1ccc(F)cc1)c1cccc(CSc2ccncc2)c1` [Compound 196, N-[4-Bromo-2-(4-fluoro-benzylidene-hydrazinocarbonyl)-phenyl]-3-(pyridin-4-ylsulfanylmethyl)-benzamide], `Cc1ccc(/C=N/NC(=O)c2cc(Br)ccc2NC(=O)c2cccc(CSc3ccncc3)c2)cc1` [Compound 198, N-[4-Bromo-2-(4-methyl-benzylidene-hydrazinocarbonyl)-phenyl]-3-(pyridin-4-ylsulfanylmethyl)-benzamide] is 4.4-fold higher in IC50: 0.61 µM for the first, 2.71 µM for the second.

Going from `Cc1ccc(/C=N/NC(=O)c2cc(Br)ccc2NC(=O)c2cccc(CSc3ccncc3)c2)cc1C` [Compound 199, N-[4-Bromo-2-(3,4-dimethyl-benzylidene-hydrazinocarbonyl)-phenyl]-3-(pyridin-4-ylsulfanylmethyl)-benzamide] to `COc1ccc(C(=O)Nc2ccc(I)cc2C(=O)N/N=C/c2ccc(C)c(C)c2)cc1OC` [Compound 208, N-[2-(3,4-Dimethyl-benzylidene-hydrazinocarbonyl)-4-iodo-phenyl]-3,4-dimethoxy-benzamide], the IC50 falls from 1.82 µM to under 0.3 µM. The second is the more potent here.

Compared with `COc1ccc(C(=O)Nc2ccc(Br)cc2C(=O)N/N=C/c2cccn2C)cc1OC` [Compound 201, N-[4-Bromo-2-(1-methyl-1H-pyrrol-2-ylmethylene-hydrazinocarbonyl)-phenyl]-3,4-dimethoxy-benzamide], `COc1ccc(C(=O)Nc2ccc(Br)cc2C(=O)N/N=C/c2cc(C)c(C)o2)cc1OC` [Compound 202, N-[4-Bromo-2-(4,5-dimethyl-furan-2-ylmethylene-hydrazinocarbonyl)-phenyl]-3,4-dimethoxy-benzamide] is 3.5-fold lower in IC50: 11.1 µM for the first, 3.14 µM for the second. The second is the more potent here.

`COc1ccc(C(=O)Nc2ccc(I)cc2C(=O)N/N=C/c2cccc(F)c2)cc1OC` [Compound 204, N-[2-(3-Fluoro-benzylidene-hydrazinocarbonyl)-4-iodo-phenyl]-3,4-dimethoxy-benzamide] and `COc1ccc(C(=O)Nc2ccc(I)cc2C(=O)N/N=C/c2cccc(C)c2)cc1OC` [Compound 206, N-[4-Iodo-2-(3-methyl-benzylidene-hydrazinocarbonyl)-phenyl]-3,4-dimethoxy-benzamide] cannot be ordered by IC50: under 3 µM for the first, under 3 µM for the second.

`COc1ccc(C(=O)Nc2ccc(I)cc2C(=O)N/N=C/c2ccc(F)cc2)cc1OC` [Compound 205, N-[2-(4-Fluoro-benzylidene-hydrazinocarbonyl)-4-iodo-phenyl]-3,4-dimethoxy-benzamide] and `COc1ccc(C(=O)Nc2ccc(I)cc2C(=O)N/N=C/c2ccc(C)cc2)cc1OC` [Compound 207, N-[4-Iodo-2-(4-methyl-benzylidene-hydrazinocarbonyl)-phenyl]-3,4-dimethoxy-benzamide] cannot be ordered by IC50: under 3 µM for the first, under 1 µM for the second.

Compared with `COc1ccc(C(=O)Nc2ccc(I)cc2C(=O)N/N=C/c2ccc(Cl)c(C(F)(F)F)c2)cc1OC` [Compound 209, N-[2-(4-Chloro-3-trifluoromethyl-benzylidene-hydrazinocarbonyl)-4-iodo-phenyl]-3,4-dimethoxy-benzamide], `COc1ccc(C(=O)Nc2ccc(Br)cc2C(=O)N/N=C(\C)c2cccc(F)c2)cc1OC` [Compound 214, N-{4-Bromo-2-[1-(3-fluoro-phenyl)-ethylidene-hydrazinocarbonyl]-phenyl}-3,4-dimethoxy-benzamide] is higher in IC50: under 1 µM for the first, 3.95 µM for the second.

Going from `Cn1cccc1/C=N/NC(=O)c1ccccc1NC(=O)c1ccncc1` [Compound 210, N-[2-(1-Methyl-1H-pyrrol-2-ylmethylene-hydrazinocarbonyl)-phenyl]-isonicotinamide] to `Cn1cccc1/C=N/NC(=O)c1cc(Br)ccc1NC(=O)c1cccnc1` [Compound 211, N-[4-Bromo-2-(1-methyl-1H-pyrrol-2-ylmethylene-hydrazinocarbonyl)-phenyl]-nicotinamide], the IC50 rises from 35 µM to 69.1 µM (2-fold).

First: Cn1cccc1/C=N/NC(=O)c1cc(Cl)ccc1NC(=O)c1cccnc1 [Compound 212, N-[4-Chloro-2-(1-methyl-1H-pyrrol-2-ylmethylene-hydrazinocarbonyl)-phenyl]-nicotinamide]
Second: COc1ccc(C(=O)Nc2ccccc2C(=O)N/N=C(\C)c2cccc(F)c2)cc1OC [Compound 213, N-{2-[1-(3-Fluoro-phenyl)-ethylidene-hydrazinocarbonyl]-phenyl}-3,4-dimethoxy-benzamide]
The IC50 of the first is 4.3-fold higher: 71.3 µM for the first, 16.6 µM for the second. The second is the more potent here.
